Experimental data from patent publication US12642797B2, “Coated granule, solid dispersion, and preparation containing vortioxetine hydrobromide for oral taste masking” (Seasons Biotechnology (Taizhou) Co., Ltd., priority 2019, dated 2026).
Where a name gives a salt, the structure may show the parent alone.

System: oral cavity and tongue
Experiment: Taste and irritation test by subjects (self-made sample vs reference sample)
Assay type: in vivo, human
Conditions: for Instantaneous irritation / Delayed irritation: hemihydrobromide
Experimental: In the examples, the taste masking effects of test samples were evaluated by the subject's perception of the bitterness and irritation of the oral cavity and tongue. The Taste and Irritation Classification Tested by the Subjects: [table]

Cc1ccc(Sc2ccccc2N2CCNCC2)c(C)c1 [vortioxetine hemihydrobromide]
Instantaneous irritation (Subject 4, 0-1 minute, powder equivalent to 20 mg of vortioxetine tasted, listed as Reference sample (1a)): ++ (+ + Irritating, tolerable) | Instantaneous irritation (Subject 4, 0-1 minute, powder equivalent to 20 mg of vortioxetine tasted, listed as Reference sample (1e)): ++ (+ + Irritating, tolerable) | Instantaneous irritation (Subject 4, 0-1 minute, powder equivalent to 20 mg of vortioxetine tasted, listed as Reference sample (2a)): ++ (+ + Irritating, tolerable) | Instantaneous irritation (Subject 4, 0-1 minute, powder equivalent to 20 mg of vortioxetine tasted, listed as Reference sample (2c)): ++ (+ + Irritating, tolerable) | Instantaneous irritation (Subject 4, 0-1 minute, powder equivalent to 20 mg of vortioxetine tasted, listed as Reference sample (3a)): +++ (+ + + Strong irritation, intolerable) | Instantaneous irritation (Subject 4, 0-1 minute, powder equivalent to 20 mg of vortioxetine tasted, listed as Reference sample (3b)): +++ (+ + + Strong irritation, intolerable) | Instantaneous irritation (Subject 4, 0-1 minute, powder equivalent to 20 mg of vortioxetine tasted, listed as Reference sample (3c)): +++ (+ + + Strong irritation, intolerable) | Instantaneous irritation (Subject 4, 0-1 minute, powder equivalent to 20 mg of vortioxetine tasted, listed as Reference sample (4a)): +++ (+ + + Strong irritation, intolerable) | Instantaneous irritation (Subject 4, 0-1 minute, powder equivalent to 20 mg of vortioxetine tasted, listed as Reference sample (1d)): ++ (+ + Irritating, tolerable) | Instantaneous irritation (Subject 4, 0-1 minute, powder equivalent to 20 mg of vortioxetine tasted, listed as Reference sample (2d)): ++ (+ + Irritating, tolerable) | Delayed irritation (Subject 4, powder equivalent to 20 mg of vortioxetine tasted, listed as Reference sample (1a)): 15 to 30 min | Delayed irritation (Subject 4, powder equivalent to 20 mg of vortioxetine tasted, listed as Reference sample (1e)): 15 to 30 min | Delayed irritation (Subject 4, powder equivalent to 20 mg of vortioxetine tasted, listed as Reference sample (2a)): >30 min | Delayed irritation (Subject 4, powder equivalent to 20 mg of vortioxetine tasted, listed as Reference sample (2c)): >30 min | Delayed irritation (Subject 4, powder equivalent to 20 mg of vortioxetine tasted, listed as Reference sample (3a)): 1 to 15 min | Delayed irritation (Subject 4, powder equivalent to 20 mg of vortioxetine tasted, listed as Reference sample (3b)): 1 to 15 min | Delayed irritation (Subject 4, powder equivalent to 20 mg of vortioxetine tasted, listed as Reference sample (3c)): >30 min | Delayed irritation (Subject 4, powder equivalent to 20 mg of vortioxetine tasted, listed as Reference sample (4a)): >30 min | Delayed irritation (Subject 4, powder equivalent to 20 mg of vortioxetine tasted, listed as Reference sample (5)): >30 min | Delayed irritation (Subject 4, powder equivalent to 20 mg of vortioxetine tasted, listed as Reference sample (6)): 15 to 30 min | Delayed irritation (Subject 4, powder equivalent to 20 mg of vortioxetine tasted, listed as Reference sample (7a)): >30 min | Delayed irritation (Subject 4, powder equivalent to 20 mg of vortioxetine tasted, listed as Reference sample (8a)): >30 min | Delayed irritation (Subject 4, powder equivalent to 20 mg of vortioxetine tasted, listed as Reference sample (8b)): >30 min | Delayed irritation (Subject 4, powder equivalent to 20 mg of vortioxetine tasted, listed as Reference sample (1d)): 15 to 30 min | Delayed irritation (Subject 4, powder equivalent to 20 mg of vortioxetine tasted, listed as Reference sample (2d)): >30 min | Instantaneous irritation (Subject 5, 0-1 minute, powder equivalent to 20 mg of vortioxetine tasted, listed as Reference sample (1a)): +++ (+ + + Strong irritation, intolerable) | Instantaneous irritation (Subject 5, 0-1 minute, powder equivalent to 20 mg of vortioxetine tasted, listed as Reference sample (1e)): +++ (+ + + Strong irritation, intolerable) | Instantaneous irritation (Subject 5, 0-1 minute, powder equivalent to 20 mg of vortioxetine tasted, listed as Reference sample (2a)): +++ (+ + + Strong irritation, intolerable) | Instantaneous irritation (Subject 5, 0-1 minute, powder equivalent to 20 mg of vortioxetine tasted, listed as Reference sample (2c)): +++ (+ + + Strong irritation, intolerable) | Instantaneous irritation (Subject 5, 0-1 minute, powder equivalent to 20 mg of vortioxetine tasted, listed as Reference sample (3a)): +++ (+ + + Strong irritation, intolerable) | Instantaneous irritation (Subject 5, 0-1 minute, powder equivalent to 20 mg of vortioxetine tasted, listed as Reference sample (3b)): +++ (+ + + Strong irritation, intolerable) | Instantaneous irritation (Subject 5, 0-1 minute, powder equivalent to 20 mg of vortioxetine tasted, listed as Reference sample (3c)): ++ (+ + Irritating, tolerable) | Instantaneous irritation (Subject 5, 0-1 minute, powder equivalent to 20 mg of vortioxetine tasted, listed as Reference sample (4a)): ++ (+ + Irritating, tolerable) | Instantaneous irritation (Subject 5, 0-1 minute, powder equivalent to 20 mg of vortioxetine tasted, listed as Reference sample (1d)): +++ (+ + + Strong irritation, intolerable) | Instantaneous irritation (Subject 5, 0-1 minute, powder equivalent to 20 mg of vortioxetine tasted, listed as Reference sample (2d)): ++ (+ + Irritating, tolerable) | Delayed irritation (Subject 5, powder equivalent to 20 mg of vortioxetine tasted, listed as Reference sample (1a)): >30 min | Delayed irritation (Subject 5, powder equivalent to 20 mg of vortioxetine tasted, listed as Reference sample (1e)): >30 min | Delayed irritation (Subject 5, powder equivalent to 20 mg of vortioxetine tasted, listed as Reference sample (2a)): 15 to 30 min | Delayed irritation (Subject 5, powder equivalent to 20 mg of vortioxetine tasted, listed as Reference sample (2c)): 15 to 30 min | Delayed irritation (Subject 5, powder equivalent to 20 mg of vortioxetine tasted, listed as Reference sample (3a)): 1 to 15 min | Delayed irritation (Subject 5, powder equivalent to 20 mg of vortioxetine tasted, listed as Reference sample (3b)): 1 to 15 min | Delayed irritation (Subject 5, powder equivalent to 20 mg of vortioxetine tasted, listed as Reference sample (3c)): >30 min | Delayed irritation (Subject 5, powder equivalent to 20 mg of vortioxetine tasted, listed as Reference sample (4a)): 15 to 30 min | Delayed irritation (Subject 5, powder equivalent to 20 mg of vortioxetine tasted, listed as Reference sample (5)): 15 to 30 min | Delayed irritation (Subject 5, powder equivalent to 20 mg of vortioxetine tasted, listed as Reference sample (6)): >30 min | Delayed irritation (Subject 5, powder equivalent to 20 mg of vortioxetine tasted, listed as Reference sample (7a)): >30 min | Delayed irritation (Subject 5, powder equivalent to 20 mg of vortioxetine tasted, listed as Reference sample (8a)): 15 to 30 min | Delayed irritation (Subject 5, powder equivalent to 20 mg of vortioxetine tasted, listed as Reference sample (8b)): 15 to 30 min | Delayed irritation (Subject 5, powder equivalent to 20 mg of vortioxetine tasted, listed as Reference sample (1d)): >30 min | Delayed irritation (Subject 5, powder equivalent to 20 mg of vortioxetine tasted, listed as Reference sample (2d)): 15 to 30 min | Delayed irritation, time to disappear (average of 5 subjects, powder equivalent to 20 mg of vortioxetine): more than 30 minutes | Instantaneous irritation (average of 5 subjects, powder equivalent to 20 mg of vortioxetine, listed as Reference sample (1a)): +++ (+ + + Strong irritation, intolerable) | Instantaneous irritation (average of 5 subjects, powder equivalent to 20 mg of vortioxetine, listed as Reference sample (1e)): +++ (+ + + Strong irritation, intolerable) | Instantaneous irritation (average of 5 subjects, powder equivalent to 20 mg of vortioxetine, listed as Reference sample (2a)): +++ (+ + + Strong irritation, intolerable) | Instantaneous irritation (average of 5 subjects, powder equivalent to 20 mg of vortioxetine, listed as Reference sample (2c)): ++ (+ + Irritating, tolerable) | Instantaneous irritation (average of 5 subjects, powder equivalent to 20 mg of vortioxetine, listed as Reference sample (3a)): ++ (+ + Irritating, tolerable) | Instantaneous irritation (average of 5 subjects, powder equivalent to 20 mg of vortioxetine, listed as Reference sample (3b)): ++ (+ + Irritating, tolerable) | Instantaneous irritation (average of 5 subjects, powder equivalent to 20 mg of vortioxetine, listed as Reference sample (3c)): ++ (+ + Irritating, tolerable) | Instantaneous irritation (average of 5 subjects, powder equivalent to 20 mg of vortioxetine, listed as Reference sample (4a)): +++ (+ + + Strong irritation, intolerable) | Instantaneous irritation (average of 5 subjects, powder equivalent to 20 mg of vortioxetine, listed as Reference sample (5)): ++ (+ + Irritating, tolerable) | Instantaneous irritation (average of 5 subjects, powder equivalent to 20 mg of vortioxetine, listed as Reference sample (6)): ++ (+ + Irritating, tolerable) | Instantaneous irritation (average of 5 subjects, powder equivalent to 20 mg of vortioxetine, listed as Reference sample (7a)): +++ (+ + + Strong irritation, intolerable) | Instantaneous irritation (average of 5 subjects, powder equivalent to 20 mg of vortioxetine, listed as Reference sample (8a)): ++ (+ + Irritating, tolerable) | Instantaneous irritation (average of 5 subjects, powder equivalent to 20 mg of vortioxetine, listed as Reference sample (8b)): ++ (+ + Irritating, tolerable) | Instantaneous irritation (average of 5 subjects, powder equivalent to 20 mg of vortioxetine, listed as Reference sample (9a)): +++ (+ + + Strong irritation, intolerable) | Instantaneous irritation (average of 5 subjects, powder equivalent to 20 mg of vortioxetine, listed as Reference sample (9c)): +++ (+ + + Strong irritation, intolerable) | Instantaneous irritation (average of 5 subjects, powder equivalent to 20 mg of vortioxetine, listed as Reference sample (9e)): ++ (+ + Irritating, tolerable) | Instantaneous irritation (average of 5 subjects, powder equivalent to 20 mg of vortioxetine, listed as Reference sample (11a)): ++ (+ + Irritating, tolerable) | Instantaneous irritation (average of 5 subjects, powder equivalent to 20 mg of vortioxetine, listed as Reference sample (12a)): +++ (+ + + Strong irritation, intolerable) | Instantaneous irritation (average of 5 subjects, powder equivalent to 20 mg of vortioxetine, listed as Reference sample (12b)): +++ (+ + + Strong irritation, intolerable) | Instantaneous irritation (average of 5 subjects, powder equivalent to 20 mg of vortioxetine, listed as Reference sample (13a)): ++ (+ + Irritating, tolerable) | Instantaneous irritation (average of 5 subjects, powder equivalent to 20 mg of vortioxetine, listed as Reference sample (13b)): ++ (+ + Irritating, tolerable) | Instantaneous irritation (average of 5 subjects, powder equivalent to 20 mg of vortioxetine, listed as Reference sample (14a)): ++ (+ + Irritating, tolerable) | Instantaneous irritation (average of 5 subjects, powder equivalent to 20 mg of vortioxetine, listed as Reference sample (16)): ++ (+ + Irritating, tolerable) | Instantaneous irritation (average of 5 subjects, powder equivalent to 20 mg of vortioxetine, listed as Reference sample (17)): ++ (+ + Irritating, tolerable) | Instantaneous irritation (average of 5 subjects, powder equivalent to 20 mg of vortioxetine, listed as Reference sample (1d)): +++ (+ + + Strong irritation, intolerable) | Instantaneous irritation (average of 5 subjects, powder equivalent to 20 mg of vortioxetine, listed as Reference sample (2d)): ++ (+ + Irritating, tolerable) | Instantaneous irritation (average of 5 subjects, powder equivalent to 20 mg of vortioxetine, listed as Reference sample (9d)): ++ (+ + Irritating, tolerable)
